Tests used:
[1] = test system: follicle-stimulating hormone β subunit (fshb) gene expression; assay: Ex vivo pituitary organ culture, real-time PCR of fshb; assay type: cell-based, medaka (Oryzias latipes); settings: for fshb expression (in words): female pituitaries, 10^-5 M, 24 h, 25 °C, vs vehicle;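 for fshb expression (Fig. 8, fshb): relative expression with female control samples set to 1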
Description: (§1) Fig. 8 Pacap and Vip have pleiotropic effects on the expression of anterior pituitary hormones. The effects of Pacap and Vip on gene expression levels of follicle-stimulating hormone β subunit (fshb), luteinizing hormone β subunit (lhb), thyroid-stimulating hormone β subunit (tshb), growth hormone (gh), somatolactin (sl), prolactin (prl), and pro-opiomelanocortin (pomc) were investigated by using male and female pituitaries cultured ex vivo (n = 6 per group, except male pituitary supplemented with Vip, where n = 5). Data were expressed as means with error bars representing standard error of the mean. Statistical differences were assessed by Dunnett’s post-hoc test. *p < 0.05; **p < 0.01; ***p < 0.001.
(§2) The pituitaries from five male or female fish were pooled for each sample and cultured ex vivo in Leibovitz’s L-15 medium supplemented with 5% charcoal-stripped fetal bovine serum as described elsewhere. The medium was further supplemented with 10^−5 M medaka Pacap or Vip, or vehicle alone. After 24 h of culture at 25 °C, the pituitaries were processed for total RNA extraction and cDNA synthesis by using the RNeasy Plus Micro Kit (Qiagen) and SuperScript VILO cDNA Synthesis Kit (Thermo Fisher Scientific), respectively. Real-time PCR was performed on the LightCycler 480 System II using LightCycler 480 SYBR Green I Master (Roche Diagnostics). The cycle conditions were: 95 °C for 5 min followed by 45 cycles of 95 °C for 10 sec, 60 °C for 10 sec and 72 °C for 10 sec. Melting curve analysis was performed as described above. Data were normalized to the geometric mean of three reference genes, actb, gapdh (encoding glyceraldehyde-3-phosphate dehydrogenase; National BioResource Project (NBRP) Medaka clone ID olbrno9_f15) and rpl13 (encoding ribosomal protein L13; NBRP Medaka clone ID olovano51_b24), according to Vandesompele et al.[63]. The primers used for real-time PCR are listed in Supplementary Table 3.

[2] = test system: prolactin (prl) gene expression; assay: Ex vivo pituitary organ culture, real-time PCR of prl; assay type: cell-based, medaka (Oryzias latipes); settings: for prl expression (in words): 10^-5 M, 24 h, 25 °C, vs vehicle
Description: as §1, §2

[3] = test system: thyroid-stimulating hormone β subunit (tshb) gene expression; assay: Ex vivo pituitary organ culture, real-time PCR of tshb; assay type: cell-based, medaka (Oryzias latipes); settings: for tshb expression (in words): 10^-5 M, 24 h, 25 °C, vs vehicle
Description: as §1, §2

[4] = test system: luteinizing hormone β subunit (lhb) gene expression; assay: Ex vivo pituitary organ culture, real-time PCR of lhb; assay type: cell-based, medaka (Oryzias latipes); settings: for lhb expression (in words): 10^-5 M, 24 h, 25 °C, vs vehicle;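 for lhb expression (Fig. 8, lhb): relative expression with female control samples set to 1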
Description: as §1, §2

[5] = test system: growth hormone (gh) gene expression; assay: Ex vivo pituitary organ culture, real-time PCR of gh; assay type: cell-based, medaka (Oryzias latipes); settings: for gh expression (in words): 10^-5 M, 24 h, 25 °C, vs vehicle
Description: as §1, §2

[6] = test system: Sl-producing cells, via Adcyap1r1; design: method as in PMID 18523122, PMID 19540424, PMID 23422837; settings: grass carp and goldfish; cited from earlier work
[7] = test system: luteinizing hormone release via Adcyap1r1; design: method as in PMID 10949084; settings: goldfish and rat; cited from earlier work
Description: (§3) Contrary to pomc, fshb expression was female-biased and repressed by Pacap and Vip in a female-specific manner. […] Possibly, Pacap may have a similar mechanism of action in medaka. In medaka, however, the inhibitory effect on fshb is assumed to be primarily driven ...

[8] = test system: Fshb expression, gonadotrophs; settings: dispersed rat pituitary cells; cited from earlier work
Description: as §3

vasoactive intestinal peptide [Vip]
fshb expression (in words) [1]: significantly reduced | fshb expression (Fig. 8, fshb) ([1]; female, replicate 1): 0.539 | fshb expression (Fig. 8, fshb) ([1]; female, replicate 2): 0.835 | fshb expression (Fig. 8, fshb) ([1]; female, replicate 3): 0.607 | fshb expression (Fig. 8, fshb) ([1]; female, replicate 4): 0.498 | fshb expression (Fig. 8, fshb) ([1]; female, replicate 5): 0.542 | fshb expression (Fig. 8, fshb) ([1]; female, replicate 6): 0.944 | fshb expression (Fig. 8, fshb) ([1]; male, replicate 1): 0.537 | fshb expression (Fig. 8, fshb) ([1]; male, replicate 2): 0.688 | fshb expression (Fig. 8, fshb) ([1]; male, replicate 3): 0.453 | fshb expression (Fig. 8, fshb) ([1]; male, replicate 5): 0.338 | fshb expression (Fig. 8, fshb) ([1]; male, replicate 6): 0.319 | prl expression (in words) ([2]; female pituitaries): substantially increased | prl expression (Fig. 8, prl) ([2]; female, replicate 1): 4.014 | prl expression (Fig. 8, prl) ([2]; female, replicate 2): 5.400 | prl expression (Fig. 8, prl) ([2]; female, replicate 3): 2.330 | prl expression (Fig. 8, prl) ([2]; female, replicate 4): 5.283 | prl expression (Fig. 8, prl) ([2]; female, replicate 5): 3.539 | prl expression (Fig. 8, prl) ([2]; female, replicate 6): 6.475 | prl expression (in words) ([2]; male pituitaries): substantially increased | prl expression (Fig. 8, prl) ([2]; male, replicate 1): 3.340 | prl expression (Fig. 8, prl) ([2]; male, replicate 2): 4.481 | prl expression (Fig. 8, prl) ([2]; male, replicate 3): 3.982 | prl expression (Fig. 8, prl) ([2]; male, replicate 5): 3.314 | prl expression (Fig. 8, prl) ([2]; male, replicate 6): 4.421 | tshb expression (in words) ([3]; female pituitaries): no significant effects | tshb expression (Fig. 8, tshb) ([3]; female, replicate 1): 1.106 | tshb expression (Fig. 8, tshb) ([3]; female, replicate 2): 0.773 | tshb expression (Fig. 8, tshb) ([3]; female, replicate 3): 0.549 | tshb expression (Fig. 8, tshb) ([3]; female, replicate 4): 1.002 | tshb expression (Fig. 8, tshb) ([3]; female, replicate 5): 0.461 | tshb expression (Fig. 8, tshb) ([3]; female, replicate 6): 0.560 | tshb expression (in words) ([3]; male pituitaries): no significant effects | tshb expression (Fig. 8, tshb) ([3]; male, replicate 1): 0.809 | tshb expression (Fig. 8, tshb) ([3]; male, replicate 2): 1.442 | tshb expression (Fig. 8, tshb) ([3]; male, replicate 3): 0.793 | tshb expression (Fig. 8, tshb) ([3]; male, replicate 5): 0.484 | tshb expression (Fig. 8, tshb) ([3]; male, replicate 6): 0.743 | lhb expression (in words) ([4]; female pituitaries): no significant effect | lhb expression (Fig. 8, lhb) ([4]; female, replicate 1): 0.807 | lhb expression (Fig. 8, lhb) ([4]; female, replicate 2): 0.719 | lhb expression (Fig. 8, lhb) ([4]; female, replicate 3): 1.380 | lhb expression (Fig. 8, lhb) ([4]; female, replicate 4): 0.757 | lhb expression (Fig. 8, lhb) ([4]; female, replicate 5): 0.750 | lhb expression (Fig. 8, lhb) ([4]; female, replicate 6): 0.836 | lhb expression (in words) ([4]; male pituitaries): no significant effect | lhb expression (Fig. 8, lhb) ([4]; male, replicate 1): 1.203 | lhb expression (Fig. 8, lhb) ([4]; male, replicate 2): 1.004 | lhb expression (Fig. 8, lhb) ([4]; male, replicate 3): 1.517 | lhb expression (Fig. 8, lhb) ([4]; male, replicate 5): 0.870 | lhb expression (Fig. 8, lhb) ([4]; male, replicate 6): 0.512 | gh expression (in words) ([5]; female pituitaries): no significant effects | gh expression (Fig. 8, gh) ([5]; female, replicate 1): 0.831 | gh expression (Fig. 8, gh) ([5]; female, replicate 2): 0.891 | gh expression (Fig. 8, gh) ([5]; female, replicate 3): 0.819 | gh expression (Fig. 8, gh) ([5]; female, replicate 4): 0.622 | gh expression (Fig. 8, gh) ([5]; female, replicate 5): 0.476 | gh expression (Fig. 8, gh) ([5]; female, replicate 6): 1.314 | gh expression (in words) ([5]; male pituitaries): no significant effects | gh expression (Fig. 8, gh) ([5]; male, replicate 1): 0.673 | gh expression (Fig. 8, gh) ([5]; male, replicate 2): 0.774 | gh expression (Fig. 8, gh) ([5]; male, replicate 3): 0.572 | gh expression (Fig. 8, gh) ([5]; male, replicate 5): 0.496 | gh expression (Fig. 8, gh) ([5]; male, replicate 6): 0.481

Pituitary adenylate cyclase-activating polypeptide [Pacap]
synthesis and release of Sl (in words) [6]: stimulate the synthesis and release of Sl via Adcyap1r1 | fshb expression (in words) [1]: significantly reduced | fshb expression (Fig. 8, fshb) ([1]; female, replicate 1): 0.383 | fshb expression (Fig. 8, fshb) ([1]; female, replicate 2): 0.806 | fshb expression (Fig. 8, fshb) ([1]; female, replicate 3): 0.807 | fshb expression (Fig. 8, fshb) ([1]; female, replicate 4): 0.427 | fshb expression (Fig. 8, fshb) ([1]; female, replicate 5): 0.650 | fshb expression (Fig. 8, fshb) ([1]; female, replicate 6): 0.545 | fshb expression (Fig. 8, fshb) ([1]; male, replicate 1): 0.173 | fshb expression (Fig. 8, fshb) ([1]; male, replicate 2): 0.236 | fshb expression (Fig. 8, fshb) ([1]; male, replicate 3): 0.293 | fshb expression (Fig. 8, fshb) ([1]; male, replicate 4): 0.230 | fshb expression (Fig. 8, fshb) ([1]; male, replicate 5): 0.290 | fshb expression (Fig. 8, fshb) ([1]; male, replicate 6): 0.452 | prl expression (in words) ([2]; female pituitaries): substantially increased | prl expression (Fig. 8, prl) ([2]; female, replicate 1): 3.510 | prl expression (Fig. 8, prl) ([2]; female, replicate 2): 4.473 | prl expression (Fig. 8, prl) ([2]; female, replicate 3): 4.149 | prl expression (Fig. 8, prl) ([2]; female, replicate 4): 4.897 | prl expression (Fig. 8, prl) ([2]; female, replicate 5): 3.291 | prl expression (Fig. 8, prl) ([2]; female, replicate 6): 4.279 | prl expression (in words) ([2]; male pituitaries): substantially increased | prl expression (Fig. 8, prl) ([2]; male, replicate 1): 1.555 | prl expression (Fig. 8, prl) ([2]; male, replicate 2): 3.928 | prl expression (Fig. 8, prl) ([2]; male, replicate 3): 2.640 | prl expression (Fig. 8, prl) ([2]; male, replicate 4): 1.612 | prl expression (Fig. 8, prl) ([2]; male, replicate 5): 3.371 | prl expression (Fig. 8, prl) ([2]; male, replicate 6): 6.401 | tshb expression (in words) ([3]; female pituitaries): no significant effects | tshb expression (Fig. 8, tshb) ([3]; female, replicate 1): 0.514 | tshb expression (Fig. 8, tshb) ([3]; female, replicate 2): 0.485 | tshb expression (Fig. 8, tshb) ([3]; female, replicate 3): 0.534 | tshb expression (Fig. 8, tshb) ([3]; female, replicate 4): 0.502 | tshb expression (Fig. 8, tshb) ([3]; female, replicate 5): 0.686 | tshb expression (Fig. 8, tshb) ([3]; female, replicate 6): 0.387 | tshb expression (in words) ([3]; male pituitaries): no significant effects | tshb expression (Fig. 8, tshb) ([3]; male, replicate 1): 0.207 | tshb expression (Fig. 8, tshb) ([3]; male, replicate 2): 0.364 | tshb expression (Fig. 8, tshb) ([3]; male, replicate 3): 1.165 | tshb expression (Fig. 8, tshb) ([3]; male, replicate 4): 0.157 | tshb expression (Fig. 8, tshb) ([3]; male, replicate 5): 2.250 | tshb expression (Fig. 8, tshb) ([3]; male, replicate 6): 0.895 | lhb expression (in words) ([4]; female pituitaries): increased | lhb expression (Fig. 8, lhb) ([4]; female, replicate 1): 2.134 | lhb expression (Fig. 8, lhb) ([4]; female, replicate 2): 1.510 | lhb expression (Fig. 8, lhb) ([4]; female, replicate 3): 1.040 | lhb expression (Fig. 8, lhb) ([4]; female, replicate 4): 2.513 | lhb expression (Fig. 8, lhb) ([4]; female, replicate 5): 1.735 | lhb expression (Fig. 8, lhb) ([4]; female, replicate 6): 1.319 | lhb expression (in words) ([4]; male pituitaries): increased | lhb expression (Fig. 8, lhb) ([4]; male, replicate 1): 3.240 | lhb expression (Fig. 8, lhb) ([4]; male, replicate 2): 1.453 | lhb expression (Fig. 8, lhb) ([4]; male, replicate 3): 3.021 | lhb expression (Fig. 8, lhb) ([4]; male, replicate 4): 2.751 | lhb expression (Fig. 8, lhb) ([4]; male, replicate 5): 1.229 | lhb expression (Fig. 8, lhb) ([4]; male, replicate 6): 1.907 | gh expression (in words) ([5]; female pituitaries): no significant effects | gh expression (Fig. 8, gh) ([5]; female, replicate 1): 0.960 | gh expression (Fig. 8, gh) ([5]; female, replicate 2): 0.795 | gh expression (Fig. 8, gh) ([5]; female, replicate 3): 0.779 | gh expression (Fig. 8, gh) ([5]; female, replicate 4): 0.968 | gh expression (Fig. 8, gh) ([5]; female, replicate 5): 0.957 | gh expression (Fig. 8, gh) ([5]; female, replicate 6): 1.344 | gh expression (in words) ([5]; male pituitaries): no significant effects | gh expression (Fig. 8, gh) ([5]; male, replicate 1): 0.248 | gh expression (Fig. 8, gh) ([5]; male, replicate 2): 0.325 | gh expression (Fig. 8, gh) ([5]; male, replicate 3): 0.488 | gh expression (Fig. 8, gh) ([5]; male, replicate 4): 0.330 | gh expression (Fig. 8, gh) ([5]; male, replicate 5): 0.376 | gh expression (Fig. 8, gh) ([5]; male, replicate 6): 0.724 | release of luteinizing hormone (in words) [7]: directly stimulates the release of luteinizing hormone via Adcyap1r1 | fshb expression (in words) [8]: acts directly on gonadotrophs to inhibit Fshb expression

Source: paper PMC8352984, “Estrogen mediates sex differences in preoptic neuropeptide and pituitary hormone production in medaka” (Communications Biology, 2021)
